The results in this text go back to US7205295B2, “Benzoxazin-3-ones and derivatives thereof as therapeutic agents” (Warner-Lambert Company LLC, priority 2002, dated 2007).

This assay has as its target T1, PI3Kγ (p101/p110γ protein) (Homo sapiens, UniProt P48736).
T1 construct: HA; made in house; host or cells: Spodoptera frugiperda (Sf9) cells, baculovirus co-infection
The experiment in a line: PI3Kγ In Vitro Kinase Assay. In kind it is biochemical. Conditions: purified recombinant p101/p110γ with G protein β1/γ2 subunits; 20 μM ATP, 25 μM PIP2; 20 minutes at room temperature. Put shortly: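 Sf9-expressed, purified human p101/p110γ (2.7 nM) was activated by Gβ1/γ2 (57.7 nM) and reacted with 20 μM ATP plus [γ-32P]ATP on PIP2 (25 μM)/PE (300 μM) micelles with 10 mM MgCl2 in HEPES buffer. Reactions ran 20 min at room temperature. Filter-captured radiolabeled PIP3 was counted by scintillation.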

SMILES strings stand for the structures.

T1 sequence (P48736 whole entry, species assumed): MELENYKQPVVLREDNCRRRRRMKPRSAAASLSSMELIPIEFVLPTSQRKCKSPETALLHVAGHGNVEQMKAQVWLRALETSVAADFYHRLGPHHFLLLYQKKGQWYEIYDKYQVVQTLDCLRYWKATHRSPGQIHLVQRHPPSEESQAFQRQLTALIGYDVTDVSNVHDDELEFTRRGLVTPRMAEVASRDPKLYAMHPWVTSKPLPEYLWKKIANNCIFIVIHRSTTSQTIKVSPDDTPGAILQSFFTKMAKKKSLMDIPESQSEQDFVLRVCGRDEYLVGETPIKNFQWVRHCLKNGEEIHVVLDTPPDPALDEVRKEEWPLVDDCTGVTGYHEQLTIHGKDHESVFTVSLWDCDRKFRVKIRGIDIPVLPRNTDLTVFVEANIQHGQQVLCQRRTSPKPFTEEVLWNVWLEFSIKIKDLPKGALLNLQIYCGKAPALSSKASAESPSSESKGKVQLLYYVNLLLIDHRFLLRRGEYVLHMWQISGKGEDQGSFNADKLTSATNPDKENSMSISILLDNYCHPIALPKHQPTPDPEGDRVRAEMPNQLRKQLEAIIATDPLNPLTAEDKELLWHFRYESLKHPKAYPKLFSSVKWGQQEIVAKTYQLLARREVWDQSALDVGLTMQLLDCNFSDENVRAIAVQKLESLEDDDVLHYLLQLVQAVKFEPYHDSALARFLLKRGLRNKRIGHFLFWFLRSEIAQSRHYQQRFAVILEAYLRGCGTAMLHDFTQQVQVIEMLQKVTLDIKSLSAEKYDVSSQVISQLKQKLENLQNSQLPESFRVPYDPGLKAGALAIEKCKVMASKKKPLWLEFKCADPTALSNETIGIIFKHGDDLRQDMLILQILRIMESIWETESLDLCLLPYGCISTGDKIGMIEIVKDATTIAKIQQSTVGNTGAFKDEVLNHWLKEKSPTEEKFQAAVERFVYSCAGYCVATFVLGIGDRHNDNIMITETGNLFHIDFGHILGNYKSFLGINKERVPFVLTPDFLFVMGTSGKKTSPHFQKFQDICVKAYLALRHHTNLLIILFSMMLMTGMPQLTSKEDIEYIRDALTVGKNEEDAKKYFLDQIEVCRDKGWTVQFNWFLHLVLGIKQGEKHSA
T1 sequence (Q8WYR1 whole entry partner, species assumed): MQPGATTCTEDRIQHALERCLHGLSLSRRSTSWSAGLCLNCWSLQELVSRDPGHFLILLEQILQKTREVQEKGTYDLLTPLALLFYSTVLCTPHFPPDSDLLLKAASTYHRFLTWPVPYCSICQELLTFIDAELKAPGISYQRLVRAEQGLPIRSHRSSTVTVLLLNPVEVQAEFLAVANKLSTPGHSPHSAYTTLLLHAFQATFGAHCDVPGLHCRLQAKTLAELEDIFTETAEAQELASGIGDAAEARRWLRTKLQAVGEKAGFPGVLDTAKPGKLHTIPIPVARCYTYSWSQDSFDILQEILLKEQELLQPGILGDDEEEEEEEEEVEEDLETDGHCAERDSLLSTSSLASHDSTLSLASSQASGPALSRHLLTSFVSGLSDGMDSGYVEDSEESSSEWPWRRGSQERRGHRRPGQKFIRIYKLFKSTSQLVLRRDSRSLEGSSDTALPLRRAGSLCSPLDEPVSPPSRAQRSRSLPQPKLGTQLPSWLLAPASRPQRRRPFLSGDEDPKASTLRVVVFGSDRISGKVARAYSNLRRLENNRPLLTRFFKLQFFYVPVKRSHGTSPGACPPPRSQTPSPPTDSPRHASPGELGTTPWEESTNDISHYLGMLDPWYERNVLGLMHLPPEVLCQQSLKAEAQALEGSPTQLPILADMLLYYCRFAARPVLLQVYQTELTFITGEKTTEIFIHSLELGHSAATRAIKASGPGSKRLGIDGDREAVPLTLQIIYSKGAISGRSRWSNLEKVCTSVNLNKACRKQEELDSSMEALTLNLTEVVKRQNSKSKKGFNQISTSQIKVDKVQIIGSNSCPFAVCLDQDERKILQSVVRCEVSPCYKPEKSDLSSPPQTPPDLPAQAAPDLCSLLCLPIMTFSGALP

The term IC50 denotes the concentration needed to halve the response being measured. As to `Cc1cc(C)nc(CN2C(=O)COc3ccc(C=C4SC(=S)NC4=O)cc32)n1` [Example 232, 4-(4,6-Dimethyl-pyrimidine-2-ylmethyl)-6-(4-oxo-2-thioxo-thiazolidin-5-ylidenemethyl)-4H-benzo[1,4]oxazin-3-one], the IC50 stood at 125 nM. In the case of `O=C1NC(=S)SC1=Cc1cc(F)c2c(c1)N(Cc1ccc(Cl)c(C(F)(F)F)c1)C(=O)CO2` [Example 233, 4-(4-Chloro-3-trifluoromethyl-benzyl)-8-fluoro-6-(4-oxo-2-thioxo-thiazolidin-5-ylidenemethyl)-4H-1,4-benzoxazin-3-one], the IC50 was determined as 35 nM.

For the compound `CC(C)(C)c1cc(C(C)(C)C)nc(CN2C(=O)COc3ccc(CC4SC(=S)NC4=O)cc32)n1` (stereo not drawn) [Example 234, 4-(4,6-Di-tert-butyl-pyrimidin-2-ylmethyl)-6-(4-oxo-2-thioxo-thazolidin-5-ylmethyl)-4H-benzo[1,4]oxazin-3-one], the concentration for half-maximal inhibition (IC50) amounted to 2070 nM. Take `CC(C)(C)c1cc(C(C)(C)C)nc(CN2C(=O)COc3c(F)cc(CC4SC(=S)NC4=O)cc32)n1` (stereo not drawn) [Example 235, 4-(4,6-Di-tert-butyl-pyrimidin-2-ylmethyl)-8-fluoro-6-(4-oxo-2-thioxo-thazolidin-5-ylmethyl)-4H-benzo[1,4]oxazin-3-one]: the IC50 is 1240 nM. As for `CC(C)(C)c1cc(CN2C(=O)COc3c(F)cc(CC4SC(=S)NC4=O)cc32)cc(C(C)(C)O)c1` (stereo not drawn) [Example 236, 4-[3-tert-Butyl-5(1-hydroxy-1-methyl-ethyl)-benzyl]-8-fluoro-6-(4-oxo-2-thioxo-thazolidin-5-ylmethyl)-4H-benzo[1,4]oxazin-3-one], the IC50 amounted to 5 nM. Turning to `CC(C)(C)c1cc(CN2C(=O)COc3ccc(C=C4SC(=S)NC4=O)cc32)cc(C(C)(C)O)c1` [Example 237, 4-[3-tert-Butyl-5(1-hydroxy-1-methyl-ethyl)-benzyl]-6-(4-oxo-2-thioxo-thazolidin-5-ylmethyl)-4H-benzo[1,4]oxazin-3-one], the IC50 amounted to 6 nM.

For `O=C1NC(=S)SC1=Cc1ccc2c(c1)N(Cc1ccc(CN3CCC4(CCCCC4)CC3)cc1)C(=O)CO2` [Example 238, 4-[4-(3-Aza-spiro[5.5]undec-3-ylmethyl)-benzyl]-6-(4-oxo-2-thioxo-thiazolidin-5-ylidenemethyl)-4H-benzo[1,4]oxazin-3-one], the IC50 stood at 36 nM. On to `O=C1NC(=O)C(=Cc2ccc3c(c2)N(Cc2ccc(CN4CCC5(CCCCC5)CC4)cc2)C(=O)CO3)S1` [Example 239, 5-{4-[4-(3-Aza-spiro[5.5]undec-3-ylmethyl)-benzyl]-3-oxo-3,4-dihydro-2H-benzo[1,4]oxazin-6-ylmethylene}-thiazolidine-2,4-dione], for which the IC50 came to 39 nM. With `CCOC(=O)N1CCN(Cc2ccc(CN3C(=O)COc4ccc(C=C5SC(=O)NC5=O)cc43)cc2)CC1` [Example 240, 4-{4-[6-(2,4-Dioxo-thiazolidin-5-ylidenemethyl)-3-oxo-2,3-dihydro-1,4-benzoxazin-4-ylmethyl]-benzyl}-piperazine-1-carboxylic acid ethyl ester], the IC50 worked out at 32 nM. On to `CCOC(=O)N1CCN(Cc2ccc(CN3C(=O)COc4ccc(C=C5SC(=S)NC5=O)cc43)cc2)CC1` [Example 241, 4-{4-[3-Oxo-6-(4-oxo-2-thioxo-thiazolidin-5-ylidenemethyl)-2,3-dihydro-benzo[1,4]oxazin-4-ylmethyl]-benzyl}-piperazine-1-carboxylic acid ethyl ester], for which the IC50 was 52 nM. With `O=C1NC(=S)SC1=Cc1cc(F)c2c(c1)N(CCCN1CCCCC1)C(=O)CO2` [Example 243], the IC50 amounted to 180 nM.

For `CC1CC(C)CN(CCCN2C(=O)COc3c(F)cc(C=C4SC(=S)NC4=O)cc32)C1` (stereo not drawn) [Example 244, 4-[3-(3,5-Dimethyl-piperidin-1-yl)-propyl]-8-fluoro-6-(4-oxo-2-thioxo-thiazolidin-5-ylidenemethyl)-4H-benzo[1,4]oxazin-3-one], the IC50 was 185 nM.
